Patent publication US20040176431A1, “Antiproliferative 2-(sulfo-phenyl)-aminothiazole derivatives and pharmaceutical compositions, and methods for their use” (Pfizer, Inc., priority 2003, published 2004)

What was measured:
[1] = tested on: HCT-116 cells; test: Inhibition of cell growth (MTT tetrazolium salt assay); assay type: cell-based; details: Homo sapiens; for IC50: read-out: HCT116 IC50; for IC90: read-out: HCT116 IC90
Protocol: Inhibition of cell growth was measured using the tetrazolium salt assay, which is based on the ability of viable cells to reduce 3-(4,5-dimethylthiazol-2-yl)-2,5-[2H]-diphenyltetrazolium bromide (MTT) to formazan (Mosmann, J. Immunol. Meth., 65, 55-63 (1983)). The water-insoluble purple formazan product was then detected spectrophotometrically. HCT-116 cells were grown in 96-well plates. Cells were plated in the appropriate medium at a volume of 135 μl/well in either McCoy's 5A Medium. Plates were incubated for four hours before addition of inhibitor compounds. Different concentrations of inhibitor compounds were added in 0.5% (v/v) dimethylsulfoxide (15 μL/well), and cells were incubated at 37° C. (5% CO2) for four to six days (depending on cell type). At the end of the incubation, MTT was added to a final concentration of 0.2 mg/mL, and cells were incubated for 4 hours more at 37° C. After centrifugation of the plates and removal of medium, the absorbance of the formazan (solubilized in dimethylsulfoxide) was measured at 540 nm. […] All results were compared to control cells treated only with 0.5% (v/v) dimethylsulfoxide.

[2] = biological target: T1, CDK4/cyclin D3 (Homo sapiens, UniProt P11802); test: Inhibition of CDK4/Cyclin D retinoblastoma kinase activity; assay type: biochemical; details: for % Inhib CDK4/D @ 0.1 μM / inhibition at 0.1 µM: test compound at 0.1 μM; for % Inhib CDK4/D @ 1 μM / inhibition at 1 µM: test compound at 1 μM (head line shifted: 'mM' printed beside 'Structure'); for % Inhib CDK4/D @ 0.03 / inhibition at 0.03 µM: test compound at 0.03 (unit cell empty, head line shifted; μM); for inhibition at 0.1 µM: read-out: % Inhib CDK4/D @ 0.1 μM; for inhibition at 1 µM: read-out: % Inhib CDK4/D @ 1 μM; for inhibition at 0.03 µM: read-out: % Inhib CDK4/D @ 0.03; for Ki: apparent Ki, Rb fragment substrate;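 as to % Inhib CDK4/D @ 1 μM: relative to DMSO control wells without compound minus no-enzyme background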
T1 construct: made in house; host or cells: insect cells (baculovirus co-infection)
T1 sequence (P11802 whole entry, the tested form may be a part): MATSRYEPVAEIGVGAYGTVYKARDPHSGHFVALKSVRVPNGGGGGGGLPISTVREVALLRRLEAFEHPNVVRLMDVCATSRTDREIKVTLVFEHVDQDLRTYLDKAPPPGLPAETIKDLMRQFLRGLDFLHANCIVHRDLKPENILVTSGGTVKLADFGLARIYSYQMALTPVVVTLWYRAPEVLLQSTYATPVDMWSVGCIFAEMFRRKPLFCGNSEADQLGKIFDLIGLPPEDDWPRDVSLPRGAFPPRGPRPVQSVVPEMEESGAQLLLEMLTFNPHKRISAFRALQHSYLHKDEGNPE
T1 sequence (P30281 1-264 partner limits assumed): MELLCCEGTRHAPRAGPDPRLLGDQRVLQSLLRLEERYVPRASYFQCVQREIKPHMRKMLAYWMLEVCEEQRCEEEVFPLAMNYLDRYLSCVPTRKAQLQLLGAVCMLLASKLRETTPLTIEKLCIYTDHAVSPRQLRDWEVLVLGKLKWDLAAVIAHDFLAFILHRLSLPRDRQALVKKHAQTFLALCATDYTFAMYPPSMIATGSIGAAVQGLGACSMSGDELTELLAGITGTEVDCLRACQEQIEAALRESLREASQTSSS
Summary of the method: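 Apparent Ki derived by fitting activity at varied inhibitor concentrations to competitive (or competitive tight-binding) inhibition equations, background without enzyme subtracted. Radiometric filter-binding read-out of Rb(386-928) phosphorylation by 5 nM CDK4/cyclin D3(1-264); 25 μM ATP, pH 7.4, 2% DMSO, 30° C., 20 min, extended to 60 min for tight binders.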

SMILES | % Inhib CDK4/D @ 0.1 μM ([2]; 0.1 µM) [%] | % Inhib CDK4/D @ 1 μM [2] [%] | % Inhib CDK4/D @ 0.03 [2] [%] | further results
CNS(=O)(=O)c1ccc(Nc2nc(N)c(C(=O)c3c(F)cccc3F)s2)cc1 [C(108)*, reference compound] | – | – | – | IC50 [1]: 400 nM; IC90 [1]: 1400 nM
CN(C)S(=O)(=O)c1ccc(Nc2nc(N)c(C(=O)c3c(F)cccc3F)s2)cc1 [C(109)*, reference compound] | – | – | – | IC50 [1]: 1600 nM; IC90 [1]: 3000 nM
Nc1nc(Nc2ccc(S(N)(=O)=O)cc2)sc1C(=O)c1c(F)cc(F)cc1F [C(115)*, reference compound] | – | – | – | IC50 [1]: 980 nM; IC90 [1]: 2100 nM
Nc1nc(Nc2ccc(S(=O)(=O)CCN3CCCC3)cc2)sc1C(=O)c1c(Cl)cccc1Cl [DD(207)] | 41 | 36.8 | −9.9 | –
Nc1nc(Nc2ccc(S(=O)(=O)Cc3ncon3)cc2)sc1C(=O)c1c(Cl)cccc1Cl [DD(208)] | 36 | 47.8 | 0.2 | –
Nc1nc(Nc2ccc(S(=O)(=O)CC3CNC(=O)O3)cc2)sc1C(=O)c1c(Cl)cccc1Cl (centres unmarked) [DD(209)] | 8 | −21 | −10 | –
CN(C)CCCS(=O)(=O)c1ccc(N(C)c2nc(N)c(C(=O)c3c(Cl)cccc3Cl)s2)cc1 [DD(210)] | – | – | – | inhibition at 0.1 µM [2]: 21%; inhibition at 1 µM [2]: -37%; inhibition at 0.03 µM [2]: -22%
Nc1nc(Nc2ccc(S(=O)(=O)CCN3CCCCC3)cc2)sc1C(=O)c1c(Cl)cccc1Cl [DD(211)] | – | −0.2 | −11 | % Inhib CDK4/D @ 0.1 μM [2]: 21%
Nc1nc(Nc2ccc(S(=O)(=O)CC3CO3)cc2)sc1C(=O)c1c(Cl)cccc1Cl (centres unmarked) [DD(212)] | 17 | −14 | −16 | –
CC(C)CCS(=O)(=O)c1ccc(Nc2nc(N)c(C(=O)c3c(Cl)cccc3Cl)s2)cc1 [DD(213)] | 14 | −11 | −22 | –
COCCS(=O)(=O)c1ccc(Nc2nc(N)c(C(=O)c3c(Cl)cccc3Cl)s2)cc1 [DD(214)] | 29 | 60.6 | −10 | –
Nc1nc(Nc2ccc(S(=O)(=O)CC(=O)Nc3ccccc3)cc2)sc1C(=O)c1c(Cl)cccc1Cl [DD(215)] | 25 | 4.9 | −15 | –
Nc1nc(Nc2ccc(S(=O)(=O)CC3CC3)cc2)sc1C(=O)c1c(Cl)cccc1Cl [DD(216)] | 20 | 47.1 | 12 | –
COc1cccc(CS(=O)(=O)c2ccc(Nc3nc(N)c(C(=O)c4c(Cl)cccc4Cl)s3)cc2)c1 [DD(217)] | 39 | −21 | −8 | –
Nc1nc(Nc2ccc(S(=O)(=O)CC3CCCO3)cc2)sc1C(=O)c1c(Cl)cccc1Cl (centres unmarked) [DD(218)] | 33 | 23.4 | −12 | –
CN1CCCC1CCS(=O)(=O)c1ccc(Nc2nc(N)c(C(=O)c3c(Cl)cccc3Cl)s2)cc1 (centres unmarked) [DD(219)] | 22 | 19.5 | 3.3 | –
CC1(CS(=O)(=O)c2ccc(Nc3nc(N)c(C(=O)c4c(Cl)cccc4Cl)s3)cc2)CO1 (centres unmarked) [DD(220)] | 30 | 26.3 | −19 | –
NC(=O)CS(=O)(=O)c1ccc(Nc2nc(N)c(C(=O)c3c(Cl)cccc3Cl)s2)cc1 [DD(221)] | 21 | 17.6 | −14 | –
CCOC(=O)CCS(=O)(=O)c1ccc(Nc2nc(N)c(C(=O)c3c(Cl)cccc3Cl)s2)cc1 [DD(222)] | −11 | −11 | −9 | –
CC(C)OC(=O)CS(=O)(=O)c1ccc(Nc2nc(N)c(C(=O)c3c(Cl)cccc3Cl)s2)cc1 [DD(223)] | 35 | 11.7 | −11 | –

SMILES | % Inhib CDK4/D @ 0.1 μM ([2]; 0.1 µM) [%] | % Inhib CDK4/D @ 1 μM [2] [%] | % Inhib CDK4/D @ 0.03 [2] [%] | further results
CC(C)=CCS(=O)(=O)c1ccc(Nc2nc(N)c(C(=O)c3c(Cl)cccc3Cl)s2)cc1 [DD(224)] | 12 | 9.8 | −2.6 | –
CCCS(=O)(=O)c1ccc(Nc2nc(N)c(C(=O)c3c(Cl)cccc3Cl)s2)cc1 [DD(225)] | 17 | 0.6 | −5 | –
COC(=O)CS(=O)(=O)c1ccc(Nc2nc(N)c(C(=O)c3c(Cl)cccc3Cl)s2)cc1 [DD(226)] | 18 | −3.9 | −6.3 | –
CN1CCCC(CS(=O)(=O)c2ccc(Nc3nc(N)c(C(=O)c4c(Cl)cccc4Cl)s3)cc2)C1 (centres unmarked) [DD(227)] | 16 | 15.2 | −12 | –
NC(=O)CCS(=O)(=O)c1ccc(Nc2nc(N)c(C(=O)c3c(Cl)cccc3Cl)s2)cc1 [DD(228)] | 29 | 43 | 1 | –
Nc1nc(Nc2ccc(S(=O)(=O)CCO)cc2)sc1C(=O)c1c(Cl)cccc1Cl [DD(229)] | 23 | 3.5 | −13 | –
CC(C)CCCS(=O)(=O)c1ccc(Nc2nc(N)c(C(=O)c3c(Cl)cccc3Cl)s2)cc1 [DD(230)] | 20 | −1.6 | −17 | –
CC(C)CCOC(=O)CS(=O)(=O)c1ccc(N(C)c2nc(N)c(C(=O)c3c(Cl)cccc3Cl)s2)cc1 [DD(231)] | – | – | – | inhibition at 0.1 µM [2]: 27%; inhibition at 1 µM [2]: 33.3%; inhibition at 0.03 µM [2]: -1.8%
CN(C)CCS(=O)(=O)c1ccc(Nc2nc(N)c(C(=O)c3c(Cl)cccc3Cl)s2)cc1 [DD(232)] | – | – | – | inhibition at 0.1 µM [2]: 26%; inhibition at 1 µM [2]: 17.6%; inhibition at 0.03 µM [2]: 3.7%
CCOCCS(=O)(=O)c1ccc(Nc2nc(N)c(C(=O)c3c(Cl)cccc3Cl)s2)cc1 [DD(233)] | – | – | – | inhibition at 0.1 µM [2]: 11%; inhibition at 1 µM [2]: -12%; inhibition at 0.03 µM [2]: 8.4%
CN(c1ccc(S(=O)(=O)CC(O)CO)cc1)c1nc(N)c(C(=O)c2c(Cl)cccc2Cl)s1 (centres unmarked) [DD(234)] | – | – | – | inhibition at 0.1 µM [2]: 35%; inhibition at 1 µM [2]: 26.1%; inhibition at 0.03 µM [2]: 9.6%
Nc1nc(Nc2ccc(S(=O)(=O)Cc3ccncc3)cc2)sc1C(=O)c1c(Cl)cccc1Cl [DD(235)] | – | – | – | inhibition at 0.1 µM [2]: 27%; inhibition at 1 µM [2]: 6.9%; inhibition at 0.03 µM [2]: 7.7%
CCC(CC)CS(=O)(=O)c1ccc(Nc2nc(N)c(C(=O)c3c(Cl)cccc3Cl)s2)cc1 [DD(236)] | – | – | – | inhibition at 0.1 µM [2]: 30%; inhibition at 1 µM [2]: 1.7%; inhibition at 0.03 µM [2]: -0.4%
CC(=O)OCCS(=O)(=O)c1ccc(Nc2nc(N)c(C(=O)c3c(Cl)cccc3Cl)s2)cc1 [DD(237)] | 22 | 7.3 | −1.7 | –
CC(C)OC(=O)CCS(=O)(=O)c1ccc(N(C)c2nc(N)c(C(=O)c3c(Cl)cccc3Cl)s2)cc1 [DD(238)] | – | – | – | inhibition at 0.1 µM [2]: 22%; inhibition at 1 µM [2]: 21.5%; inhibition at 0.03 µM [2]: -19%
Nc1nc(Nc2ccc(S(=O)(=O)CCN3CCOCC3)cc2)sc1C(=O)c1c(Cl)cccc1Cl [DD(239)] | 27 | 8 | 12 | –
CC(C)(CO)CS(=O)(=O)c1ccc(Nc2nc(N)c(C(=O)c3c(Cl)cccc3Cl)s2)cc1 [DD(240)] | 11 | 8.7 | 6.8 | –
Nc1nc(Nc2ccc(S(=O)(=O)NCc3ccco3)cc2)sc1C(=O)c1c(F)cccc1F [Example A(22), 4-[4-Amino-5-(2,6-difluoro-benzoyl)-thiazol-2-ylamino]-N-furan-2-ylmethyl-benzenesulfonamide] | – | – | – | Ki [2]: 22 nM; IC50 [1]: 240 nM; IC90 [1]: 620 nM
CSc1cccc(Nc2nc(N)c(C(=O)c3c(Cl)cccc3Cl)s2)c1 [R(3), 4-Amino-5-(2,6-dichlorobenzoyl)-2-(3-methylthio-phenylamino)-thiazole] | – | – | – | Ki [2]: 74 nM
Nc1nc(Nc2ccc(Sc3ccncc3)cc2)sc1C(=O)c1c(Cl)cccc1Cl [W(1), 4-Amino-5-(2,6-dichloro-benzoyl)-2-[4-(pyridin-4-ylthio)-phenylamino]-thiazole] | – | – | – | Ki [2]: 89 nM
